Our source for the IC50 values is patent publication EP4104902B1, “COMPOUNDS AND M[…] SAME” (priority 2020, dated 2021).

The structures appear in SMILES notation. Some results are limits rather than exact numbers.

For this assay, the system named is recombinant rabies virus 1088 strain expressing Gaussia Luciferase (GLuc) (1088/GLuc). The assay is classed as cell-based. Conditions: read-out: Anti-rabies activity.

For the compound `NC(=O)C[C@@H]1[C@@H]2[C@@H]3CN[C@@]1(C(=O)NCCc1ccccc1)C[C@@H]3CN2Cc1ccc(F)cc1` (relative stereo) [IF-269], the IC50 was 10 to 30 µM.
For `CC(C)NC(=O)[C@@]12C[C@@H]3CN(Cc4ccc(F)cc4)[C@@H]([C@@H]3CN1)[C@H]2CCCNC(=N)N` (relative stereo) [IF-274] the value was 10 to 30 µM; for `N=C(N)NCCC[C@@H]1[C@@H]2[C@@H]3CN[C@@]1(C(=O)NCc1cccc4ccccc14)C[C@@H]3CN2Cc1ccccc1` (relative stereo) [IF-284], 10 to 30 µM; for `CCCCCCNC(=O)[C@@]12C[C@@H]3CN(Cc4ccccc4)[C@@H]([C@@H]3CN1)[C@H]2CCCNC(=N)N` (relative stereo) [IF-285], 10 to 30 µM.
For the compound `N=C(N)NCCC[C@@H]1[C@@H]2[C@@H]3CN[C@@]1(C(=O)NCc1cccc4ccccc14)C[C@@H]3CN2Cc1ccc(F)cc1` (relative stereo) [IF-297], the IC50 fell in the range of 10 to 30 µM.
As to `CCCCCCNC(=O)[C@@]12C[C@@H]3CN(Cc4ccc(F)cc4)[C@@H]([C@@H]3CN1)[C@H]2CCCNC(=N)N` (relative stereo) [IF-298], the IC50 lay in the range of 10 to 30 µM.
As for `CC(C)CC[C@@H]1[C@@H]2[C@@H]3CN[C@@]1(C(=O)NCCC(N)=O)C[C@@H]3CN2CC(C)C` (relative stereo) [IF-300], the IC50 was 10 to 30 µM.
Turning to `CC(C)CC[C@@H]1[C@@H]2[C@@H]3CN[C@@]1(C(=O)NCCC(N)=O)C[C@@H]3CN2Cc1cccc2ccccc12` (relative stereo) [IF-384], the IC50 was in the range of 10 to 30 µM.
`N=C(N)NCCCNC(=O)[C@@]12C[C@@H]3CN(Cc4cccc5ccccc45)[C@@H]([C@@H]3CN1)[C@H]2Cc1ccccc1` (relative stereo) [IF-386]: the IC50 lay in the range of 10 to 30 µM.
For `N=C(N)NCCCNC(=O)[C@@]12C[C@@H]3CN(Cc4cccc5ccccc45)[C@@H]([C@@H]3CN1)[C@H]2CCc1ccccc1` (relative stereo) [IF-389] the value was < 5 µM; for `N=C(N)NCCCNC(=O)[C@@]12C[C@@H]3CN(Cc4cccc5ccccc45)[C@@H]([C@@H]3CN1)[C@H]2Cc1cccc2ccccc12` (relative stereo) [IF-390], 10 to 30 µM; for `CC(C)CC[C@@H]1[C@@H]2[C@@H]3CN[C@@]1(C(=O)NCC(C)C)C[C@@H]3CN2Cc1ccccc1` (relative stereo) [IF-411], < 5 µM.
As for `CC(C)CC[C@@H]1[C@@H]2[C@@H]3CN[C@@]1(C(=O)NCC(C)C)C[C@@H]3CN2CC(C)C` (relative stereo) [IF-412], the figure is < 5 µM; as for `CC(C)CCN1C[C@H]2C[C@]3(C(=O)NCCC(=O)O)NC[C@H]2[C@H]1[C@H]3Cc1cccc2ccccc12` (relative stereo) [IF-413], 10 to 30 µM; as for `CC(C)CCN1C[C@H]2C[C@]3(C(=O)NCc4ccc(O)cc4)NC[C@H]2[C@H]1[C@H]3CCc1ccccc1` (relative stereo) [IF-464], 10 to 30 µM.
Take `CC(C)CCN1C[C@H]2C[C@]3(C(=O)NCc4ccc(O)cc4)NC[C@H]2[C@H]1[C@H]3Cc1cccc2ccccc12` (relative stereo) [IF-465]: the IC50 lay within 10 to 30 µM.
`CC(C)CCN1C[C@H]2C[C@]3(C(=O)NCc4ccc(O)cc4)NC[C@H]2[C@H]1[C@H]3Cc1ccccc1` (relative stereo) [IF-466]: the IC50 fell in the range of 10 to 30 µM.
Consider `CC(C)CC[C@@H]1[C@@H]2[C@@H]3CN[C@@]1(C(=O)NCc1ccc(O)cc1)C[C@@H]3CN2CCc1ccccc1` (relative stereo) [IF-468], for which the IC50 lay within 10 to 30 µM.
For `O=C(NCc1ccc(O)cc1)[C@@]12C[C@@H]3CN(CCc4ccccc4)[C@@H]([C@@H]3CN1)[C@H]2Cc1ccccc1` (relative stereo) [IF-469] the value was 10 to 30 µM; for `CC(C)C[C@@H]1[C@@H]2[C@@H]3CN[C@@]1(C(=O)NCc1ccc(O)cc1)C[C@@H]3CN2CCc1ccccc1` (relative stereo) [IF-470], 10 to 30 µM; for `O=C(NCc1ccc(O)cc1)[C@@]12C[C@@H]3CN(Cc4cccc5ccccc45)[C@@H]([C@@H]3CN1)[C@H]2Cc1ccccc1` (relative stereo) [IF-472], < 5 µM.
For `CC(C)C[C@@H]1[C@@H]2[C@@H]3CN[C@@]1(C(=O)NCc1ccc(O)cc1)C[C@@H]3CN2Cc1cccc2ccccc12` (relative stereo) [IF-473] the value was < 5 µM.
As for `CC(C)CC[C@@H]1[C@@H]2[C@@H]3CN[C@@]1(C(=O)NCc1ccc(O)cc1)C[C@@H]3CN2CC1CCCCC1` (relative stereo) [IF-474], the figure is < 5 µM.
On to `O=C(NCc1ccc(O)cc1)[C@@]12C[C@@H]3CN(CC4CCCCC4)[C@@H]([C@@H]3CN1)[C@H]2CCc1ccccc1` (relative stereo) [IF-475], for which the IC50 is 10 to 30 µM.
On to `O=C(NCc1ccc(O)cc1)[C@@]12C[C@@H]3CN(CC4CCCCC4)[C@@H]([C@@H]3CN1)[C@H]2Cc1ccccc1` (relative stereo) [IF-477], for which the IC50 is < 5 µM.
For `CC(C)C[C@@H]1[C@@H]2[C@@H]3CN[C@@]1(C(=O)NCc1ccc(O)cc1)C[C@@H]3CN2CC1CCCCC1` (relative stereo) [IF-478] the value was < 5 µM; for `CC(C)CC[C@@H]1[C@@H]2[C@@H]3CN[C@@]1(C(=O)NCc1ccc(O)cc1)C[C@@H]3CN2Cc1ccc(F)cc1` (relative stereo) [IF-479], < 5 µM; for `O=C(NCc1ccc(O)cc1)[C@@]12C[C@@H]3CN(Cc4ccc(F)cc4)[C@@H]([C@@H]3CN1)[C@H]2Cc1ccccc1` (relative stereo) [IF-481], 10 to 30 µM.
Turning to `CC(C)C[C@@H]1[C@@H]2[C@@H]3CN[C@@]1(C(=O)NCc1ccc(O)cc1)C[C@@H]3CN2Cc1ccc(F)cc1` (relative stereo) [IF-482], the IC50 was 10 to 30 µM.
On to `O=C(NCCO)[C@@]12C[C@@H]3CN(CC4CCCCC4)[C@@H]([C@@H]3CN1)[C@H]2Cc1ccccc1` (relative stereo) [IF-486], for which the IC50 was in the range of 10 to 30 µM.
For `CC(C)CC[C@@H]1[C@@H]2[C@@H]3CN[C@@]1(C(=O)NCCO)C[C@@H]3CN2Cc1ccc(F)cc1` (relative stereo) [IF-490] the value was 10 to 30 µM; for `CC(C)CC[C@@H]1[C@@H]2[C@@H]3CN[C@@]1(C(=O)NCc1ccc(O)cc1)C[C@@H]3CN2Cc1ccccc1` (relative stereo) [IF-493], < 5 µM; for `O=C(NCc1ccc(O)cc1)[C@@]12C[C@@H]3CN(Cc4ccccc4)[C@@H]([C@@H]3CN1)[C@H]2Cc1ccccc1` (relative stereo) [IF-494], 10 to 30 µM.
For `CC(C)CN1C[C@H]2C[C@]3(C(=O)NCc4ccc(O)cc4)NC[C@H]2[C@H]1[C@H]3Cc1cccc2ccccc12` (relative stereo) [IF-500] the value was 10 to 30 µM.
Turning to `CC(C)CC[C@@H]1[C@@H]2[C@@H]3CN[C@@]1(C(=O)NC(C)C)C[C@@H]3CN2Cc1ccc(O)cc1` (relative stereo) [IF-503], the IC50 was < 5 µM.
For the compound `CC(C)NC(=O)[C@@]12C[C@@H]3CN(Cc4ccc(O)cc4)[C@@H]([C@@H]3CN1)[C@H]2Cc1cccc2ccccc12` (relative stereo) [IF-504], the IC50 is 10 to 30 µM.
With `O=C(NCc1ccccc1)[C@@]12C[C@@H]3CN(Cc4cccc5ccccc45)[C@@H]([C@@H]3CN1)[C@H]2Cc1ccc(O)cc1` (relative stereo) [IF-505], the IC50 was < 5 µM.
`O=C(NCc1ccc(F)cc1)[C@@]12C[C@@H]3CN(CCO)[C@@H]([C@@H]3CN1)[C@H]2Cc1ccccc1` (relative stereo) [IF-508]: the IC50 was in the range of 10 to 30 µM.
Take `CCCCCCNC(=O)[C@@]12C[C@@H]3CN(CC4CCCCC4)[C@@H]([C@@H]3CN1)[C@H]2Cc1ccc(O)cc1` (relative stereo) [IF-514]: the IC50 was < 5 µM.
In the case of `O=C(NCc1ccc(F)cc1)[C@@]12C[C@@H]3CN(CCO)[C@@H]([C@@H]3CN1)[C@H]2CCc1ccccc1` (relative stereo) [IF-516], the IC50 was < 5 µM.
In the case of `CC(C)CN1C[C@H]2C[C@]3(C(=O)NCc4ccc(F)cc4)NC[C@H]2[C@H]1[C@H]3CCc1ccccc1` (relative stereo) [IF-525], the IC50 lay in the range of 10 to 30 µM.
As for `NC(=O)CCNC(=O)[C@@]12C[C@@H]3CN(CC4CCCCC4)[C@@H]([C@@H]3CN1)[C@H]2Cc1cccc2ccccc12` (relative stereo) [IF-536], the figure is < 5 µM; as for `NC(=O)CCNC(=O)[C@@]12C[C@@H]3CN(Cc4ccc(F)cc4)[C@@H]([C@@H]3CN1)[C@H]2Cc1cccc2ccccc12` (relative stereo) [IF-539], < 5 µM; as for `CC(C)C[C@@H]1[C@@H]2[C@@H]3CN[C@@]1(C(=O)NCc1cccc4ccccc14)C[C@@H]3CN2CCO` (relative stereo) [IF-542], < 5 µM.
For the compound `O=C(NCc1cccc2ccccc12)[C@@]12C[C@@H]3CN(CCO)[C@@H]([C@@H]3CN1)[C@H]2Cc1ccc(O)cc1` (relative stereo) [IF-543], the IC50 fell in the range of 10 to 30 µM.
Regarding `CC(C)CCN1C[C@H]2C[C@]3(C(=O)NCCc4ccccc4)NC[C@H]2[C@H]1[C@H]3Cc1ccc(O)cc1` (relative stereo) [IF-545], the IC50 lay within 10 to 30 µM.
Consider `CCCCCCNC(=O)[C@@]12C[C@@H]3CN(CCC(C)C)[C@@H]([C@@H]3CN1)[C@H]2CC(C)C` (relative stereo) [IF-546], for which the IC50 was 10 to 30 µM.
As for `CC(C)CCN1C[C@H]2C[C@]3(C(=O)NCc4ccc(F)cc4)NC[C@H]2[C@H]1[C@H]3Cc1ccccc1` (relative stereo) [IF-547], the figure is < 5 µM; as for `CC(C)CCN1C[C@H]2C[C@]3(C(=O)NCc4ccc(F)cc4)NC[C@H]2[C@H]1[C@H]3CC(C)C` (relative stereo) [IF-548], 10 to 30 µM.
For the compound `CCCCCCNC(=O)[C@@]12C[C@@H]3CN(Cc4ccccc4)[C@@H]([C@@H]3CN1)[C@H]2CC(C)C` (relative stereo) [IF-560], the IC50 is < 5 µM.
Consider `O=C(NCc1ccc(F)cc1)[C@@]12C[C@@H]3CN(Cc4ccccc4)[C@@H]([C@@H]3CN1)[C@H]2Cc1ccccc1` (relative stereo) [IF-561], for which the IC50 is < 5 µM.
Take `O=C(NCc1ccc(O)cc1)[C@@]12C[C@@H]3CN(Cc4ccccc4)[C@@H]([C@@H]3CN1)[C@H]2CCc1ccccc1` (relative stereo) [IF-565]: the IC50 is < 5 µM.
Consider `CC(C)CN1C[C@H]2C[C@]3(C(=O)NCCc4ccccc4)NC[C@H]2[C@H]1[C@H]3Cc1ccc(O)cc1` (relative stereo) [IF-567], for which the IC50 lay within 10 to 30 µM.
